ChEMBL document CHEMBL1201862, “PubChem BioAssay data set” (2004)
Active and inactive are the calls of the source.

How the values were obtained:
[1] = biological target: T1, DNA repair and recombination protein RAD54-like (Homo sapiens, UniProt Q92698); experiment: inhibitors of human RAD54 branch migration, confirmation, biochemical, fluorescence, cherry-picked samples, dose series (AID 651657); type: functional
T1 sequence (Q92698 whole entry): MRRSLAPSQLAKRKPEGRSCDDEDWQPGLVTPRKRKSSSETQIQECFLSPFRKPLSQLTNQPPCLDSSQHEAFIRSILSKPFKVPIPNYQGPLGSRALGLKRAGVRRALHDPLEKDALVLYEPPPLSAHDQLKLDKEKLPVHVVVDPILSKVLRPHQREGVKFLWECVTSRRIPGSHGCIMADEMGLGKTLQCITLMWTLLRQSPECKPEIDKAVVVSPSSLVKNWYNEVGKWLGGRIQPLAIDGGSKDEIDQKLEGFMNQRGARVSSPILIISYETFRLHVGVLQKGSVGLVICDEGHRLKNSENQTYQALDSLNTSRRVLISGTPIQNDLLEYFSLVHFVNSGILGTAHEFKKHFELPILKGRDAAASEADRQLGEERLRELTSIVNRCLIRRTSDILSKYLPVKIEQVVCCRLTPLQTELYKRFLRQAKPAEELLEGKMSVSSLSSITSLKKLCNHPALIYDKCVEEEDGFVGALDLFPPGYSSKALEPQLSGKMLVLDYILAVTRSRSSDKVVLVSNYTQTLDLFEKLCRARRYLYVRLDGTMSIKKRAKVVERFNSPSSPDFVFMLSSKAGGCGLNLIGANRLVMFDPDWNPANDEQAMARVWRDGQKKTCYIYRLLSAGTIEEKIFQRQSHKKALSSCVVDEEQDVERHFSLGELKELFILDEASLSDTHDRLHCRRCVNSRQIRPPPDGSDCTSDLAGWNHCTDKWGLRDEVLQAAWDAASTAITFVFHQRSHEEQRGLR

[2] = biological target: T2, Short transient receptor potential channel 4 (Mus musculus, UniProt Q9QUQ5); experiment: mouse TRPC4 channel activators, dose response, cell-based, HEK293 TRPC4/mu-opioid, Fluo-4 calcium (AID 434937); type: functional
T2 sequence (Q9QUQ5 whole entry): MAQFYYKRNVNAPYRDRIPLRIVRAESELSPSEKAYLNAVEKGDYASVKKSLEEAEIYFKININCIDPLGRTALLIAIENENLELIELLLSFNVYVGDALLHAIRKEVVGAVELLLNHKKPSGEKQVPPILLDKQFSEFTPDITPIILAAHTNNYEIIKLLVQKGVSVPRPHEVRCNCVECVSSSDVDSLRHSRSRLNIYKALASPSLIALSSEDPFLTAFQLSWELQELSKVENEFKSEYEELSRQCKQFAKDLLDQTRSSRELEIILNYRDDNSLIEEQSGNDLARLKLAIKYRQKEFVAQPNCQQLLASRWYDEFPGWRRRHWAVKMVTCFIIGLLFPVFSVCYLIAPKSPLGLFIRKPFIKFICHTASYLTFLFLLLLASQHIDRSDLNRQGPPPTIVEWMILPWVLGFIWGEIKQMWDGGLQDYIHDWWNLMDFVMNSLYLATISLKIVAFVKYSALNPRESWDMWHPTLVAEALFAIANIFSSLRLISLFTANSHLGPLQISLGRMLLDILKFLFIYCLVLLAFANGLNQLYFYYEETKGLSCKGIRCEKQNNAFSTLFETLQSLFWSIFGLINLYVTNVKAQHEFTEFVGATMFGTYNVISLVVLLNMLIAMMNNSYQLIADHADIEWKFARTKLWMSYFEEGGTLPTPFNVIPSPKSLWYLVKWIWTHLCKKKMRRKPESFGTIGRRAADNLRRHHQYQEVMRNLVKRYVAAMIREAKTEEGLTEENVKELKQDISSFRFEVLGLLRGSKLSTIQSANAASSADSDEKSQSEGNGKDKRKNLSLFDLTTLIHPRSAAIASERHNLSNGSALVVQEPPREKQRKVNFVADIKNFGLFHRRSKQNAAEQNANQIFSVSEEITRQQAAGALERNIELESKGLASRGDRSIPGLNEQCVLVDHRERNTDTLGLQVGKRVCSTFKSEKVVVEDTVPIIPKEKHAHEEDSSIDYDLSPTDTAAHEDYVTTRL

Cytochrome P450 2C19 = Cytochrome P450 2C19 (Homo sapiens, UniProt P33261); experiment: Cytochrome panel assay with activity outcomes. Panel member name: p450-cyp2c19 Compounds with AC50 equal or less than 10 uM are considered active; type: functional; conditions: read-out: AC50
Cytochrome P450 2C19, sequence (P33261 whole entry): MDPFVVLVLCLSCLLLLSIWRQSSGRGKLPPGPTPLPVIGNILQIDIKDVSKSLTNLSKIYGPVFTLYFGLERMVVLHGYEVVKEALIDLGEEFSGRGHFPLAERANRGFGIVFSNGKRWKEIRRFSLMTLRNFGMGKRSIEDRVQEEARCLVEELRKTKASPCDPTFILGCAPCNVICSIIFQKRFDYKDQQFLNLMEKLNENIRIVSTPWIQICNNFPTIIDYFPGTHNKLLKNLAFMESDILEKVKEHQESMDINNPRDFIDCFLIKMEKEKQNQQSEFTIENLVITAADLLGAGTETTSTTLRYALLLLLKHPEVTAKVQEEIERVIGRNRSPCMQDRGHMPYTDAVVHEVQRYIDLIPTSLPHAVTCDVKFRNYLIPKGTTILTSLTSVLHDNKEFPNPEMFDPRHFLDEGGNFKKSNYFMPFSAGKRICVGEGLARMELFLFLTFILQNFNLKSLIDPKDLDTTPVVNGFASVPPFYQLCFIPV

[3] = biological target: Heat shock protein HSP 90-alpha (Homo sapiens, UniProt P07900); type: functional, organism-based
[4] = A cytotoxicity screen of small molecule inhibitors of the PhoP region in Salmonella typhi identified in the primary screen. [Related pubchem assays: 1850, 1864, 1985 ]; type: functional
Escherichia coli = experiment: microbe, parasite or virus in culture
[5] = biological target: T3, DNA repair protein RAD52 homolog (Homo sapiens, UniProt P43351); type: functional, biochemical
T3 sequence (P43351 whole entry): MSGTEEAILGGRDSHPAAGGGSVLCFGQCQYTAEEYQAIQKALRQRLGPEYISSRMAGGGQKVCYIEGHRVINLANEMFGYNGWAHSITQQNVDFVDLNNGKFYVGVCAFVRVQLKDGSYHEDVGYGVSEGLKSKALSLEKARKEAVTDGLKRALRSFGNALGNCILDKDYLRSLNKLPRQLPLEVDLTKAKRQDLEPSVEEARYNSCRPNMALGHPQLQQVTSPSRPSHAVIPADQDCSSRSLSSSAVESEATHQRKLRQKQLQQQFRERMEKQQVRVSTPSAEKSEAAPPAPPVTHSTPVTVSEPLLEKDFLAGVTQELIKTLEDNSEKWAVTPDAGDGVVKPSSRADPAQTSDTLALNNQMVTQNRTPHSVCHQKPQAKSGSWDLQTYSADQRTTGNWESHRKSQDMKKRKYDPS

[6] = Fluorescence-based cell-based high throughput dose response assay for inhibitors of the interaction of nucleotide-binding oligomerization domain containing 2 (NOD2) and the receptor-interacting serine-threonine kinase 2 (RIPK2).; type: functional, Homo sapiens
[7] = A Cell Based Secondary Assay To Explore Cytotoxicity of Compounds that Sensitize Mycobacterium Tuberculosis to Beta-Lactam Antibiotics.; type: functional
[8] = Luminescence Cell-Based Dose Retest to Confirm Inhibitors of Cancer Stem Cells. [Related pubchem assays (depositor defined):AID2717, AID2721]; type: functional; conditions: Homo sapiens
[9] = A549 cell cytotoxicity, dose response, cytotoxicity control, plate reader, cherry-pick, antagonist series (AID 743412); type: functional, cell-based
[10] = HepG2 cell cytotoxicity, dose response, cytotoxicity control, plate reader, cherry-pick, antagonist series (AID 743416); type: functional, cell-based
[11] = LGR2 antagonists, dose response, cell-based, HEK293, CRE-luciferase reporter, cherry pick, set 2 (AID 743343); type: functional;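 also: transfected cells were stimulated with diluted bursicon conditioned medium after compound addition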
[12] = MC4R antagonists, dose response, counter-screen for LGR2 antagonist project, cell-based, plate reader, cherry pick (AID 743444); type: functional;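 also: transfected HEK 293 cells stimulated with alpha-MSH peptide; potency of inhibitors of the alpha-MSH evoked signal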
[13] = HEK293 cell cytotoxicity, dose response, cytotoxicity control, plate reader, cherry-picked samples (AID 743446); type: functional, cell-based

For CCN(CC)CCNC(=O)c1cc2c(=O)n(C)c3ccccc3c2n1C, the AC50 [1] was 18.3 µM (active).
In the case of O=C(O)C1C2C=CC(C2)C1C(=O)N1CCN(C/C=C/c2ccccc2)CC1 (stereo not given), the EC50 [2] was 5.96 µM (active) and the AC50 (Cytochrome P450 2C19) was 14.1 µM (inconclusive).
For OC(Cn1cncn1)(c1ccccc1)c1ccccc1, the AC50 [3] was 1.43 µM (active).
For C[C@@H](C(=O)NC1CCCC1)N1C(=O)N2CCc3c([nH]c4ccccc34)[C@@]2(C)C1=O, the EC50 [4] was > 50 µM (active).
In the case of COc1ccccc1-n1nc(C(=O)Nc2ccc3c(c2)OCO3)c2ccccc2c1=O, the AC50 (Escherichia coli) was 74.7 µM (active).
In the case of CCOc1ncccc1C(=O)N(CC)CC(=O)Nc1ccc(NC(C)=O)cc1, the AC50 (Escherichia coli) was 96.8 µM (active).
With Cc1ccc(NC(=O)c2ccc(Oc3ncccn3)cc2)cc1 the AC50 (Escherichia coli) was 37.9 µM (active).
In the case of NC(=O)CN1CCN(CCN2C(=O)c3cccc4cccc(c34)C2=O)CC1, the AC50 [1] was 13.3 µM (active) and the AC50 [5] was 12.1 µM (active).
With CC1CCCCN1S(=O)(=O)c1ccc(NC(=O)c2ccco2)cc1 (stereo not given) the AC50 (Escherichia coli) was 32.1 µM (active).
In the case of CCCCN(CC)CCCNC(=O)c1cc2c(-c3ccc(OC)c(OC)c3)nn(C)c2s1, the AC50 [1] was 9.31 µM (active) and the AC50 [5] was 3.21 µM (active).
With CC(=O)OC1CC2OC3C=C(C)CCC3(C)C1(C)C21CO1 (stereo not given) the IC50 [6] was 49.8 µM (inactive).
With Cc1cc(C)c2nc(C)cc(Nc3ccc(C(=O)NCCO)cc3)c2c1 the AC50 [1] was 32.6 µM (active).
In the case of OC(CNC1CCCc2ccccc21)COc1ccc2ccccc2c1 (stereo not given), the EC50 [2] was 5.96 µM (active).
With O=C1NC(=O)N(CCc2ccccc2)C(=O)/C1=C/NCc1ccc2c(c1)OCO2 the AC50 (Escherichia coli) was 43.4 µM (active).
With Cn1nnnc1Sc1ncnc2scc(-c3ccc(C(F)(F)F)cc3)c12 the CC50 [7] was 6.16 µM (active), the AC50 [8] was 2.52 µM (active) and the AC50 [9] was 7.67 µM (active). For the same molecule, the AC50 [10] was 8.47 µM (active), the AC50 [11] was 14.8 µM (active) and the AC50 [12] was 17.7 µM (active). For the same molecule, the AC50 [13] was 8.08 µM (active).
With CCn1cc(C(=O)NCCCN(C)C)c(=O)c2cc(F)c(N3CCN(C)CC3)cc21 the EC50 [4] was > 50 µM (active).
